± gives the expanded uncertainty stated by the source.
Assays:
[1] = 101.33 kPa, Buoyancy - hydrostatic balance
[2] = refractive index (Na D-line) (dimensionless); details: 101.33 kPa, Liquid, Standard Abbe refractometry

mass density ([1]; 293.2 K, Crystal) [kg/m3]	refractive index ([2]; 293.2 K)	mass density ([1]; 293.2 K, Liquid) [kg/m3]	refractive index ([2]; 314.5 K)	mass density ([1]; 314.5 K, Liquid) [kg/m3]	Compound
1332 ± 3	–	–	–	–	Oc1ccc(O)cc1 [1,4-benzenediol]
–	1.40065 ± 0.00054	811 ± 2	–	–	CCCCC(C)=O [2-hexanone]
–	1.4288 ± 0.0005	823.6 ± 0.3	–	–	CCCCCCCCO [octan-1-ol]
–	–	–	1.54182 ± 0.00051	1058.1 ± 0.3	Oc1ccccc1 [phenol]
–	1.3842 ± 0.0005	889 ± 2	–	–	CCCOC(C)=O [propyl ethanoate]

Source: the NIST ThermoML archive (doi:10.1021/acs.jced.5b00918)
